What was measured:
[1] = test system: mouse bone marrow-derived pluripotent stem cells (BMSC); assay: Differentiation of BMSC into myotubes, phase-contrast microscope; type: cell-based; details: 5-aza-C 3 μM in all dishes
Description: The mouse bone marrow-derived pluripotent stem cells (BMSC) having the potential to differentiate into cardiomyocytes were plated into 60-mm culture dishes and 60 mm fibronectin-coated dishes (Becton Dickinson) at a density of 2×10^4 cells/ml and cultured at 33° C. in a 5% CO2-incubator.
On the next day, 5-aza-C was added to each culture medium in a final concentration of 3 μM, followed by culturing with the following 3 different treatments, with addition of PDGF (culture dish A), both PDGF and retinoic acid (culture dish B) or without addition of any compound (culture dish C) (final concentration: PDGF, 10 ng/ml; retinoic acid, 10^−9 M).
On the next day, the medium was replaced with a fresh medium to remove 5-aza-C therefrom. Then, PDGF was added to the culture dish A until the final concentration of PDGF came to be 10 ng/ml, while PDGF and retinoic acid were added to the culture dish B until the final concentrations of PDGF and retinoic acid came to be 10 ng/ml and 10^−9 M, respectively. Two and four days thereafter, the medium was replaced and the PDGF or retinoic acid was further added.
As a result, about 30% of the cells in the culture dish containing 5-aza-C alone differentiated into myotubes, while about 40% of the cells in the culture dish containing PDGF and about 50% of the cells in the culture dish containing PDGF together with retinoic acid differentiated into myotubes. In the three groups of the fibronectin-coated dishes, the ratio of the cells differentiated into myotubes was about 10% higher than in the three groups of the culture dishes.
(§1) RNAs were collected from the myotubes thus obtained. And genes expressed in the myotubes were analyzed with quantitative PCR analysis using the synthetic oligonucleotides represented by SEQ ID NOS:71 to 78. As a result, PDGF or retinoic acid promoted the expression of MyoD and fTnI genes relating to a skeletal muscle but not cTnI or ANP specifically relating to a myocardium. Next, mouse bone marrow-derived pluripotent stem cells (BMSC) having the potential to differentiate into cardiomyocytes were inoculated in a 60-mm culture dish at a density of 2×10^4 cells/ml and cultured using an incubator at 33° C. under 5% of CO2.
On the next day, 5-aza-C was added to the liquid culture medium to give a final concentration of 3 μM. Furthermore, five treatments differing from each other were performed by adding FGF-8 to give a final concentration of 10 ng/ml (culture dish D); adding ET-1 to give a final concentration of 10 ng/ml (culture dish E); adding a midkine to give a final concentration of 10 ng/ml (Culture dish F); adding BMP4 to give a final concentration of 10 ng/ml (culture dish G); and adding no compound (culture dish H), followed by culturing.
On the next day, the medium was replaced by a fresh medium to eliminate 5-aza-C therefrom. Then, FGF-8 was added to the culture dish D to give a final concentration of 10 ng/ml; ET-1 was added to the culture dish E to give a final concentration of 10 ng/ml; the midkine was added to the culture dish F to give a final concentration of 10 ng/ml; and BMP4 was added to the culture dish G to give a final concentration of 10 ng/ml, followed by culturing. Two and four days thereafter, the medium was replaced and the FGF-8, ET-1, midkine or BMP4 was further added.
As a result, about 30% of the cells in the culture dish containing 5-aza-C alone differentiated into myotubes, while about 50% of the cells in the culture dishes containing FGF-8, ET-1, midkine or BMP4 differentiated into myotubes respectively.

KUM2 cells = assay: Induction of spontaneously beating cardiomyocytes in KUM2 cells by 5-aza-C; type: cell-based, mouse; details: 5-aza-C 3 μM for 24 hours
Description: After culturing for about 4 months under the above conditions, immortalized cells were selected and diluted to establish 192 cell lines respectively derived from single cells (hereinafter referred to as bone marrow-derived first passage immortalized cell lines). To each of these clone-derived cell lines was added 5-aza-C at a final concentration of 3 μM, and the cells were cultured for 24 hours. After culturing for further 2 weeks in IMDM, clones that produced spontaneously beating cells were selected. […] One of three cell lines is KUM2. Hereinafter, unless otherwise indicated, the bone marrow cell KUM2 and mouse bone marrow-derived pluripotent stem cells (BMSC) described below were cultured in IMDM supplemented with 20% FCS, […] penicillin, 250 ng/ml streptomycin and […] amphotericin at 33° C. using a 5% CO2-incubator. When the KUM2 cells were exposed to 5-aza-C having a final concentration of 3 μM for 24 hours, nonspecific differentiation into spontaneously beating cardiomyocytes was induced. However, the frequency is very low (one or less per 10^7 cells).

[2] = test system: Nkx2.5/Csx and GATA4 co-forced expressing bone marrow cells (BMSC-Nkx2.5-GATA4); assay: Differentiation of BMSC-Nkx2.5-GATA4 with cytokines, phase-contrast microscope; type: cell-based, mouse; details: BMSC-Nkx2.5-GATA4, 5-aza-C 3 μM in all dishes; cytokine 10 ng/ml; four weeks
Description: The Nkx2.5/Csx and GATA4 co-forced expressing bone marrow cells (BMSC-Nkx2.5-GATA4) having the potential to differentiate into cardiomyocytes were plated into a 60-mm culture dish at a density of 2×10^4 cells/ml and cultured at 33° C. in a 5% CO2-incubator.
On the next day, 5-aza-C was added to the culture medium to give a final concentration of 3 μM. Furthermore, 5 treatments differing from each other were carried out by adding FGF-8 to give a final concentration of 10 ng/ml (culture dish I); adding ET-1 to give a final concentration of 10 ng/ml (culture dish J); adding midkine to give a final concentration of 10 ng/ml (culture dish K); adding BMP4 to give a final concentration of 10 ng/ml (culture dish L); and adding nothing (culture dish M), followed by culturing.
On the next day, the medium was replaced with a fresh medium to eliminate 5-aza-C. Then, FGF-8 was added to the culture dish I to give a final concentration of 10 ng/ml; ET-1 was added to the culture dish J to give a final concentration of 10 ng/ml; midkine was added to the culture dish K to give a final concentration of 10 ng/ml; and BMP4 was added to the culture dish L to give a final concentration of 10 ng/ml, followed by culturing. Two and four days thereafter, furthermore, the medium was replaced, and the FGF-8, ET-1, midkine or BMP4 was added.
As a result, about 30% of the cells in the culture dish containing 5-aza-C alone were converted into myotubes, while about 50% of the cells in the culture dishes containing FGF-8, ET-1, midkine or BMP4 differentiated into myotubes respectively. On the other hand, the addition of FGF-8, ET-1, midkine or BMP4 caused no increase in beating cardiomyocytes.

[3] = test system: mouse bone marrow-derived pluripotent stem cells (BMSC); assay: Induction of differentiation of BMSC into cardiomyocytes using DMSO; type: cell-based; details: then 6 weeks
Description: According to the method described in Example 1, mouse bone marrow-derived pluripotent stem cells (BMSC) having the potential to differentiate into cardiomyocytes were obtained and cultured for 24 hours in the presence of 10 μM DMSO instead of 3 μM 5-aza-C. The medium was replaced with IMDM, followed by culturing for 6 weeks.

Bone marrow cells (BMSC) = assay: Induction of adipocytes from BMSC by PPAR-γ receptor agonists; type: cell-based, mouse
Description: Bone marrow cells (BMSC) having the potential to differentiate into cardiomyocytes can be induced to differentiate not only into cardiomyocytes but also into adipocytes. To control the differentiation into adipocytes, the conditions for the induction of the differentiation were examined. First, the expression of PPAR-y receptors was analyzed by the quantitative PCR method. […] Subsequently, PPAR-γ receptor agonists, pioglitazone and troglitazone, were added at various concentrations to bone marrow cells (BMSC) having the potential to differentiate into cardiomyocytes.

[4] = test system: mouse bone marrow-derived pluripotent stem cells (BMSC); assay: Quantitative PCR of genes expressed in myotubes from BMSC; type: cell-based; details: with 5-aza-C 3 μM; for expression of cTnI or ANP specifically relating to a myocardium: PDGF 10 ng/ml, retinoic acid 10^−9 M
Description: as §1
RNAs were collected from the myotubes thus obtained. And genes expressed in the myotubes were analyzed with quantitative PCR using the synthetic oligonucleotides represented by SEQ ID NOS:71 to 78. As a result, the FGF-8, ET-1, midkine and BMP4 each individually promoted the expression of cTnI and ANP gene which are myocardium-specific genes.

[5] = culture dishes, PDGF 10 ng/ml, retinoic acid 10^−9 M, four weeks

Compound	cells differentiated into myotubes [1, 5]	BMSCs differentiated into adipocytes (Bone marrow cells (BMSC); 0.4 μM)	BMSCs differentiated into adipocytes (Bone marrow cells (BMSC); 2 μM)	expression of MyoD and fTnI genes relating to a skeletal muscle [4]	expression of cTnI or ANP specifically relating to a myocardium [4]	further results
Nc1ncn([C@@H]2O[C@H](CO)[C@@H](O)[C@H]2O)c(=O)n1 [5-aza-C, 5-azacytidine, reference compound]	about 30%	–	–	–	–	cells differentiated into myotubes ([1]; cytokine 10 ng/ml, four weeks after addition of 5-aza-C): about 30%; frequency of differentiation into spontaneously beating cardiomyocytes (KUM2 cells): one or less; cells differentiated into myotubes [2]: about 30%
C[S+](C)[O-] [DMSO, dimethyl sulfoxide]	–	–	–	–	–	differentiation into beating cardiomyocytes ([3]; 10 μM DMSO for 24 hours instead of 5-aza-C): induced to differentiate into beating cardiomyocytes; expression of Nkx2.5/Csx and GATA4 genes in produced cells ([3]; 10 μM DMSO for 24 hours): expressed
CCc1ccc(CCOc2ccc(CC3SC(=O)NC3=O)cc2)nc1 (stereo not drawn) [pioglitazone]	–	about 50%	~100%	–	–	–
CC1=C(/C=C/C(C)=C/C=C/C(C)=C/C(=O)O)C(C)(C)CCC1 [retinoic acid, all trans retinoic acid, reference compound]	–	–	–	promoted	not	–
Cc1c(C)c2c(c(C)c1O)CCC(C)(COc1ccc(CC3SC(=O)NC3=O)cc1)O2 (stereo not drawn) [troglitazone]	–	about 50%	~100%	–	–	–
PDGF	about 40%	–	–	promoted	not	–
